Several values for one entry are separate records, joined by “and”; a condition that tells them apart may be missing. Equal values may be shown once.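 Growth conditions: 96-well plates. Treatment: test compound, 48 hours, 5 concentrations. Analysis: linear interpolation between bracketing concentrations; unreached endpoints set to highest concentration. GI50 marks 50% less growth. TGI denotes the concentration required for complete inhibition of growth.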
Tests used:
Assay in all cases: NCI anticancer screen, dose series, 48 h
[1] = test system: 786-0 renal
[2] = test system: A498 renal
[3] = test system: A549 NSCLC
[4] = test system: ACHN renal
[5] = test system: BT-549 breast
[6] = test system: CAKI-1 renal
[7] = test system: CCRF-CEM leukemia
[8] = test system: COLO 205 colon
[9] = test system: DU-145 prostate
[10] = test system: EKVX NSCLC
[11] = test system: HCC-2998 colon
[12] = test system: HCT-116 colon
[13] = test system: HCT-15 colon
[14] = test system: HL-60(TB) leukemia
[15] = test system: HOP-62 NSCLC
[16] = test system: HOP-92 NSCLC
[17] = test system: HS 578T breast
[18] = test system: HT29 colon
[19] = test system: IGROV1 ovarian
[20] = test system: K-562 leukemia
[21] = test system: KM12 colon
[22] = test system: LOX IMVI melanoma
[23] = test system: M14 melanoma
[24] = test system: MALME-3M melanoma
[25] = test system: MCF7 breast
[26] = test system: MDA-MB-231 breast
[27] = test system: MDA-MB-435
[28] = test system: MDA-N
[29] = test system: MOLT-4 leukemia
[30] = test system: NCI-H226 lung
[31] = test system: NCI-H23 lung
[32] = test system: NCI-H460 lung
[33] = test system: NCI-H522 lung
[34] = test system: NCI/ADR-RES ovarian
[35] = test system: OVCAR-3 ovarian
[36] = test system: OVCAR-4 ovarian
[37] = test system: OVCAR-5 ovarian
[38] = test system: OVCAR-8 ovarian
[39] = test system: PC-3 prostate
[40] = test system: RPMI-8226 leukemia
[41] = test system: RXF 393 renal
[42] = test system: SF-268 CNS
[43] = test system: SF-295 CNS
[44] = test system: SF-539 CNS
[45] = test system: SK-MEL-2 melanoma
[46] = test system: SK-MEL-28 melanoma
[47] = test system: SK-MEL-5 melanoma
[48] = test system: SK-OV-3 ovarian
[49] = test system: SN12C renal
[50] = test system: SNB-19 CNS
[51] = test system: SNB-75 CNS
[52] = test system: SR leukemia
[53] = test system: SW-620 colon
[54] = test system: T-47D breast
[55] = test system: TK-10 renal
[56] = test system: U251 CNS
[57] = test system: UACC-257 melanoma
[58] = test system: UACC-62 melanoma
[59] = test system: UO-31 renal

O=C(O)c1cc2cc(OCc3ccccc3)ccc2[nH]1
TGI [1]: > 100 µM
GI50 [2]: 35.1 µM
TGI [2]: > 100 µM
TGI [3]: > 100 µM
TGI [4]: > 100 µM
GI50 [5]: 59.1 µM
TGI [5]: > 100 µM
GI50 [6]: > 84.2 µM
TGI [6]: > 100 µM
TGI [7]: > 100 µM
TGI [8]: > 100 µM
TGI [9]: > 100 µM
TGI [10]: > 100 µM
TGI [11]: > 100 µM
TGI [12]: > 100 µM
TGI [13]: > 100 µM
TGI [14]: > 100 µM
TGI [15]: > 100 µM
GI50 [16]: 20.7 µM
TGI [16]: 92.4 µM and > 100 µM
GI50 [17]: > 85 µM
TGI [17]: 77.4 µM and > 100 µM
GI50 [18]: > 100 µM
TGI [18]: > 100 µM
GI50 [19]: 52.4 µM
TGI [19]: > 100 µM
TGI [20]: > 100 µM
TGI [21]: > 100 µM
TGI [22]: > 100 µM
TGI [23]: > 100 µM
GI50 [24]: 198 nM
TGI [24]: 762 nM and 1560 nM
GI50 [25]: > 100 µM
TGI [25]: > 100 µM
TGI [26]: > 100 µM
TGI [27]: > 100 µM
TGI [28]: > 100 µM
TGI [29]: > 100 µM
GI50 [30]: > 100 µM
TGI [30]: 93.1 µM and > 100 µM
TGI [31]: > 100 µM
TGI [32]: > 100 µM
TGI [33]: > 100 µM
TGI [34]: > 100 µM
TGI [35]: > 100 µM
GI50 [36]: > 100 µM
TGI [36]: > 100 µM
TGI [37]: > 100 µM
TGI [38]: > 100 µM
TGI [39]: > 100 µM
TGI [40]: > 100 µM
TGI [41]: > 100 µM
TGI [42]: > 100 µM
TGI [43]: > 100 µM
TGI [44]: > 100 µM
GI50 [45]: > 100 µM
TGI [45]: > 100 µM
GI50 [46]: 8.32 µM
TGI [46]: 61.7 µM and > 100 µM
TGI [47]: > 100 µM
TGI [48]: > 100 µM
TGI [49]: > 100 µM
GI50 [50]: > 100 µM
TGI [50]: > 100 µM
GI50 [51]: 34.2 µM
TGI [51]: > 100 µM
TGI [52]: > 100 µM
TGI [53]: > 100 µM
TGI [54]: > 100 µM
TGI [55]: > 100 µM
TGI [56]: > 100 µM
GI50 [57]: > 74 µM
TGI [57]: > 100 µM
TGI [58]: > 100 µM
GI50 [59]: 1920 nM
TGI [59]: > 100 µM

COc1ccc(/C=C/C(=O)Oc2ccc(/C=C3\CCCCC3=O)cc2)cc1
TGI [1]: > 100 µM
TGI [2]: > 100 µM
TGI [3]: > 100 µM
TGI [4]: > 100 µM
TGI [5]: > 100 µM
TGI [6]: > 100 µM
TGI [7]: 6.77 µM
TGI [8]: > 93.2 µM
TGI [9]: > 100 µM
TGI [10]: > 100 µM
TGI [11]: > 72.3 µM
TGI [12]: > 95.4 µM
TGI [13]: > 100 µM
TGI [14]: > 83.6 µM
TGI [15]: > 77.3 µM
TGI [16]: > 100 µM
TGI [17]: > 100 µM
TGI [18]: 26.3 µM
TGI [19]: > 100 µM
TGI [20]: > 100 µM
TGI [21]: > 100 µM
TGI [22]: > 100 µM
TGI [23]: > 100 µM
TGI [24]: > 100000 nM
TGI [25]: > 100 µM
TGI [26]: > 83.9 µM
TGI [27]: > 100 µM
TGI [28]: > 100 µM
TGI [29]: 7.51 µM
TGI [30]: > 100 µM
TGI [31]: > 100 µM
TGI [32]: > 100 µM
TGI [33]: > 100 µM
TGI [34]: > 100 µM
TGI [35]: > 100 µM
TGI [36]: > 90.2 µM
TGI [37]: > 100 µM
TGI [38]: > 100 µM
TGI [39]: > 100 µM
TGI [40]: 13.9 µM
TGI [41]: > 100 µM
TGI [42]: > 69.5 µM
TGI [43]: 49.4 µM
TGI [44]: > 100 µM
TGI [45]: > 100 µM
TGI [46]: > 100 µM
TGI [47]: > 100 µM
TGI [48]: > 100 µM
TGI [49]: > 100 µM
TGI [50]: > 100 µM
TGI [51]: > 100 µM
TGI [52]: > 100 µM
TGI [53]: > 100 µM
TGI [54]: > 100 µM
TGI [55]: > 100 µM
TGI [56]: > 100 µM
TGI [57]: > 100 µM
TGI [58]: > 100 µM
TGI [59]: > 100 µM

From PubChem BioAssay (NCI)
